Reference: patent US10287320B2, “Anti-lymphoma peptides” (Universitetet i Tromsø—Norges Arktiske Universitet, priority 2014, dated 2019)
Square brackets hold non-standard residues; d marks the D form. Ends that are not written are not given here. Trp(2,5,7-tBu3) = CC(C)(C)c1cc(C(C)(C)C)c2[nH]c(C(C)(C)C)c(C[C@H](N)C(=O)O)c2c1

How the values were obtained:
A20 cells = assay: MTT cytotoxicity assay against A20 lymphoma cells; assay type: cell-based, Murine; conditions: for ΔIC50 (difference in activity against A20): compared with peptide 4a; for ΔIC50 on further increase of charge: 4a→5 and 6a→7, A20 cells; for IC50: A20 cells
Procedure: (§1) The first screen against A20 and MRC-5 was done manually, while the lymphoma panel screen were done at Marbio (Tromsø) using an automated platform (Biomek NX, Beckman Coulter). Cells were automatically counted (Z1 Coulter Particle Counter, Beckman Coulter) and the cells seeded out in 96-well plates. The plates were incubated for at least 16 hours before the start of the assay. The growth media was removed and the cells washed once with 100 μL assay media (RPMI-1640). Cells were then treated with 100 μL peptide solution (concentration varying from 500-10 μg/mL) for 4 hrs. Normal assay media and assay media containing 0.1% Triton were used as negative and positive controls, respectively. After this period 10 μL of a MTT solution (5 mg/mL) was added to each well and the plate incubated for a further 2 hrs. Following this 70 μL of the media was carefully removed and 100 μL acidified isopropanol added. The formed formazan crystals were dissolved by agitating the cells with a micropipette and by shaking (30 mins). The absorbance of the reduced MTT (formazan) was read on Versa Max Microplate Reader (Molecular Devices) at 590 nm. All assays, unless mentioned otherwise, were done in triplicate.

MRC-5 cells = assay: MTT cytotoxicity assay against MRC-5 normal fibroblasts (selectivity, SI-1); assay type: cell-based, Human
Procedure: The first screen against A20 and MRC-5 was done manually, while the lymphoma panel screen were done at Marbio (Tromsø) using an automated platform (Biomek NX, Beckman Coulter).
Cells were automatically counted (Z1 Coulter Particle Counter, Beckman Coulter) and the cells seeded out in 96-well plates. The plates were incubated for at least 16 hours before the start of the assay.
as §1, with “The” for “The first screen against A20 and MRC-5 was done manually, while the lymphoma panel screen were done at Marbio (Tromsø) using an automated platform (Biomek NX, Beckman Coulter). Cells were automatically counted (Z1 Coulter Particle Counter, Beckman Coulter) and the cells seeded out in 96-well plates. The plates were incubated for at least 16 hours before the start of the assay. The”
During the initial screening process peptide analogues was tested against normal human fibroblasts (SI-1) and the results used to estimate cytotoxicity towards healthy cells surrounding the tumor.

[1] = Cardiovascular toxicity assessment in telemeterized rats; assay type: in vivo, Sprague-Dawley rats; conditions: IV twice-daily, telemetry -1 to 8 hours
Procedure: Male Sprague-Dawley (Charles River, Portage, Mich.) rats (320-400 g) were instrumented with DSI (St. Paul, Minn.) telemetry transmitters by CorDynamics.
EWL-6 was stored in a freezer set to maintain approximately −20° C. and protected from light. A formulation comprising EWL-6 was prepared at a dose volume of 1 mL/kg/dose in 0.9% sodium chloride for injection, U.S.P., for IV dosing. Doses were filtered through a […] PP filter prior to injection.
Each rat was manually restrained and vehicle or EWL-6 dosed twice-daily intravenously over approximately 1-2 minutes. Daily doses were separated by approximately 4 hours.
Pulse pressure (FIG. 8) and mean arterial pressure (FIG. 9) were recorded for −1 to 8 hours following the first daily dose via telemetry and reported in 1 minute averages from −1 to 8 hours following the first daily dose.

[2] = system: SU-DHL-6 (diffuse large B cell lymphoma); assay type: cell-based, Human; conditions: 16 h
Procedure: as §1, with “Cells were then treated with 100 μL peptide solution (concentration varying from 500-10 μg/mL) for 4 hrs.” left out

[3] = system: Namalawa (Burkitt's lymphoma); assay type: cell-based, Human; conditions: 16 h
Procedure: as §1

[4] = system: Ramos (Burkitt's lymphoma); assay type: cell-based, Human; conditions: 16 h
Procedure: as §1

three T-lymphoma lines = assay type: cell-based, Human; conditions: 16 h
Procedure: as §1

[5] = system: DU-145 Prostate carcinoma; assay type: cell-based; conditions: 4 h
Procedure: as §1, with “The” for “The first screen against A20 and MRC-5 was done manually, while the lymphoma panel screen were done at Marbio (Tromsø) using an automated platform (Biomek NX, Beckman Coulter). Cells were automatically counted (Z1 Coulter Particle Counter, Beckman Coulter) and the cells seeded out in 96-well plates. The plates were incubated for at least 16 hours before the start of the assay. The”

HT-29 Colon carcinoma = assay type: cell-based; conditions: 4 h
Procedure: as §1, with “The” for “The first screen against A20 and MRC-5 was done manually, while the lymphoma panel screen were done at Marbio (Tromsø) using an automated platform (Biomek NX, Beckman Coulter). Cells were automatically counted (Z1 Coulter Particle Counter, Beckman Coulter) and the cells seeded out in 96-well plates. The plates were incubated for at least 16 hours before the start of the assay. The”

A20 lymphomas = conditions: mouse, in vivo
Procedure: A20 tumor cells were harvested, washed in RPMI-1640 and inoculated (i.d.) into the left side of the abdomen in BALB/c mice (5×10^6 cells in 50 μl RPMI-1640 per mouse). When the tumor size reached 20 mm^2 the mice were split into three groups and treated; Group1—nine mice with the vehicle (0.9% NaCl in sterile H2O), Group2a—eight mice where the tumors were treated with peptide 6a, and Group 3a—nine mice where the tumors were treated with peptide 11. Intralesional injections were performed once a day for three consecutive days.
Tumor size was measured three times a week using an electronic caliper and expressed as the area of an ellipse [(maximum dimension/2)×(minimum dimension/2)×[…]. Animals were killed when the tumor exceeded 100 mm^2. Animals were killed also if the tumor had not reached that size but presented ulcerations or the animals developed metastasis.
Survival curves were compared by the log-rank test. Groups were compared using one-way ANOVA test with Tukey's multiple comparison. Differences were considered significant when P<0.05.

[6] = Table 1, selectivity, normal human fibroblasts (MRC-5) versus A20 lymphoma, MTT
[7] = five most active peptides from the A20 screening, tested against normal human fibroblasts
[8] = Table 2, analogues of 6a, MRC-5 fibroblasts versus A20 lymphoma, MTT
[9] = Table 3, MRC-5 fibroblasts versus A20 lymphoma

For “(Tbt)R(Tbt)-GG-RRRRRRR (SEQ ID NO: 17) ([Trp(2,5,7-tBu3)]R[Trp(2,5,7-tBu3)]GGRRRRRRR-NH2; N-terminus assumed; SMILES CC(C)(C)c1cc(C(C)(C)C)c2[nH]c(C(C)(C)C)c(C[C@H](NC(=O)[C@H](CCCNC(=N)N)NC(=O)[C@@H](N)Cc3c(C(C)(C)C)[nH]c4c(C(C)(C)C)cc(C(C)(C)C)cc34)C(=O)NCC(=O)NCC(=O)N[C@@H](CCCNC(=N)N)C(=O)N[C@@H](CCCNC(=N)N)C(=O)N[C@@H](CCCNC(=N)N)C(=O)N[C@@H](CCCNC(=N)N)C(=O)N[C@@H](CCCNC(=N)N)C(=O)N[C@@H](CCCNC(=N)N)C(=O)N[C@@H](CCCNC(=N)N)C(N)=O)c2c1) [Peptide 4c]”, the “ΔIC50 (difference in activity against A20)” value (A20 cells) was “small and unexpected decrease in activity”, the SI-1 (MRC-5 cells; [6]) was 1 and the “SI-1 / selectivity” value (MRC-5 cells; [7]) was “almost no selectivity at all”.
In the case of “KLAKLAKKLAKLAK-GG-RRRRRRR (SEQ ID NO: 9) [Peptide 1b]”, the SI-1 (MRC-5 cells; [6]) is reported as 5 and the “SI-1 / selectivity” value (MRC-5 cells; [7]) is reported as “low selectivity”.
With “RWRW-GG-RRRRRRR (SEQ ID NO: 13) (RWRWGGRRRRRRR-NH2) [Peptide 5]” the “ΔIC50 on further increase of charge” value (A20 cells) was “≈ 1 μM”.
In the case of “RWRWRWGGRRRRRRR-NH2 [Peptide 7, RWRWRW-GG-RRRRRRR (SEQ ID NO: 15)]”, the “ΔIC50 on further increase of charge” value (A20 cells) is reported as “≈ 1 μM”, the “SI-1 / selectivity” value (MRC-5 cells; 16 h) is reported as “higher than 10” and the SI-1 (MRC-5 cells; [6]) is reported as 12.
For “W-GG-RRRRRRR (SEQ ID NO: 10) (WGGRRRRRRR-NH2) [Peptide 2]”, the “ΔIC50 (difference in activity against A20)” value (A20 cells) was 58 µM.
With “WGRRRRRGWGRRRRGW-NH2 [EWL-6, WGRRRRRGWGRRRRGW (SEQ ID NO: 8)]” the “mean arterial pressure compared to control” value [1] was “No noticeable difference” and the “pulse pressure compared to control” value [1] was “No noticeable difference”.
With “WR(Tbt)-GG-RRRRRRR (SEQ ID NO: 16) (WR[Trp(2,5,7-tBu3)]GGRRRRRRR-NH2; N-terminus assumed; SMILES CC(C)(C)c1cc(C(C)(C)C)c2[nH]c(C(C)(C)C)c(C[C@H](NC(=O)[C@H](CCCNC(=N)N)NC(=O)[C@@H](N)Cc3c[nH]c4ccccc34)C(=O)NCC(=O)NCC(=O)N[C@@H](CCCNC(=N)N)C(=O)N[C@@H](CCCNC(=N)N)C(=O)N[C@@H](CCCNC(=N)N)C(=O)N[C@@H](CCCNC(=N)N)C(=O)N[C@@H](CCCNC(=N)N)C(=O)N[C@@H](CCCNC(=N)N)C(=O)N[C@@H](CCCNC(=N)N)C(N)=O)c2c1) [Peptide 4b]” the SI-1 (MRC-5 cells; [6]) was 2 and the “SI-1 / selectivity” value (MRC-5 cells; [7]) was “almost no selectivity at all”.
In the case of “WRRRGRRWRGRRRW [Peptide 6c, WRRRGRRWRGRRRW (SEQ ID NO: 22)]”, the IC50 (A20 cells; Table 3, MTT, 4 hrs treatment) is reported as 6.1 µM, the SI-1 (MRC-5 cells; [8]) is reported as greater than 100 and the SI-1 (MRC-5 cells; [9]) is reported as greater than 100.
With “WRRRRRWRRRRW-NH2 [Peptide 11, WRRRRRWRRRRW (SEQ ID NO: 23)]” the IC50 [2] was less than 10 µM, the IC50 [3] was less than 10 µM and the IC50 [4] was less than 10 µM. For the same substance, the IC50 (three T-lymphoma lines) was roughly 4.6 µM, the IC50 [5] was 69 µM and the IC50 (HT-29 Colon carcinoma) was 70 µM. The systemic toxic effects (A20 lymphomas) was “no signs of systemic toxic effects”.
“WRWRW-GG-RRRR (SEQ ID NO: 20) (WRWRWGGRRRR-NH2) [Peptide 10]” gave an SI-1 (MRC-5 cells; [8]) greater than 23.
For “WRWRW-GG-RRRRR (SEQ ID NO: 19) (WRWRWGGRRRRR-NH2) [Peptide 9]”, the SI-1 (MRC-5 cells; [8]) was 23.
“WRWRW-GG-RRRRRR (SEQ ID NO: 18) [Peptide 8]” gave an SI-1 (MRC-5 cells; [8]) of 21.
“WRWRWGGKKKKKKK [WRWRW-GG-KKKKKKK, WRWRW-GG-KKKKKKK (SEQ ID NO:26)]” showed an IC50 (A20 cells; as described in Example 1) of 13.2 µM.
With “WRWRWGGRRRRRRR-NH2 [Peptide 6a, WRWRW-GG-RRRRRRR (SEQ ID NO: 14)]” the IC50 [2] was less than 10 µM, the IC50 [3] was less than 10 µM and the IC50 [4] was less than 10 µM. The IC50 (three T-lymphoma lines) was roughly 4.6 µM and the systemic toxic effects (A20 lymphomas) was “no signs of systemic toxic effects”.
“WWWGGRRRRRRRRR [Peptide 6b, WWWGGRRRRRRRRR (SEQ ID NO: 21)]” showed an IC50 (A20 cells; Table 3, MTT, 4 hrs treatment) of 3.5 µM, an SI-1 (MRC-5 cells; [8]) of 9 and an SI-1 (MRC-5 cells; [9]) of 9.
